Experimental data from the NIST ThermoML archive (doi:10.1016/j.tca.2016.01.009).
Numbers after ± are expanded uncertainties.

Conditions: Crystal; visual observation

SMILES: OCc1cn(Cc2ccccc2)nn1 [(1-benzyl-1H-1,2,3-triazol-4-yl)methanol]
- Normal melting temperature: 78.70 ± 0.48 °C
